{"source": "patent US20230018014A1", "about": "“NOVEL COMPOUNDS AND FORMULATIONS” (PRO-AL MEDICO-TECHNOLOGIES, INC., priority 2019, published 2023)", "key": {"[1]": {"tested_on": "T3-induced cells (HS5) and PC12 neuronal cells", "assay": "ATP-bioluminescence in T3-induced cells (HS5) and PC12 neuronal cells under hypoxia (Example 6)", "type": "cell-based", "settings": "hypoxia 24 hours; Epinephrine 0.5 μM", "procedure": "(§1) The cells were then cultured under hypoxia for 24 hours. Results using ATP-bioluminescence and LDH release assays."}, "[2]": {"tested_on": "neonatal cardiomyocytes", "assay": "ATP-bioluminescence assay in isolated neonatal cardiomyocytes under hypoxia", "type": "cell-based", "settings": "4% oxygen, 5% CO2, 37° C., 24 hours", "procedure": "(§2) This study aimed to investigate the positive protective role of T3, T3 nanoparticles and nanoparticles of T3 and phosphocreatine (PCR) in hypoxia-mediated cardiac cell insults, as well as its influences on vascularization and neuronal protection, under hypoxic condition. […] Mitochondrial function and sarcomere integrity were studied using an ATP-bioluminescence assay, and cardiac Troponin T levels using flow cytometry, respectively.\n(§3) The cells were cultured in a hypoxia incubator with 4% oxygen, 5% CO2 at 37° C. for 24 hours. Following incubation, the cells were collected and compared with those of normal condition. Mitochondrial function and sarcomere integrity were studied using an ATP-bioluminescence assay, and cardiac Troponin T levels using flow cytometry after adding troponin T antibody conjugated with FITC."}, "[3]": {"tested_on": "neonatal cardiomyocytes", "assay": "neonatal cardiomyocyte contraction under normoxic and hypoxic condition", "type": "cell-based"}, "[4]": {"tested_on": "neonatal cardiomyocytes", "assay": "cardiac Troponin T levels by flow cytometry in neonatal cardiomyocytes under hypoxia", "type": "cell-based", "settings": "4% oxygen, 5% CO2, 37° C., 24 hours", "procedure": "as §2, §3"}, "[5]": {"tested_on": "swine", "assay": "porcine cardiac arrest model", "type": "in vivo", "procedure": "In this study, swine were subjected to 7 minutes of cardiac arrest followed by manual CPR for up to 20 minutes with defibrillation every 2 minutes as necessary. […] In animals that achieved ROSC (unassisted systolic BP>80 mmHg for 1 min), further pharmacologic support was limited to 1 additional dose of the selected drug for hypotension. Hemodynamics, left ventricular (LV) function, plasma cardiac troponin I (cTnl) and other parameters were assessed at baseline and for up to 4 hours post-ROSC."}, "[6]": {"tested_on": "Neuron-Specific Enolase (NSE)", "assay": "Neuron-Specific Enolase ELISA in pig blood plasma after cardiac arrest and resuscitation", "type": "in vivo", "settings": "2 hours post-ROSC", "procedure": "The blood samples were collected from pigs subjected to cardiac arrest and resuscitation as described in Example 7. […] At 2 hours post-ROSC, blood samples were collected from a peripheral vein into tubes with EDTA and centrifuged for 15 minutes. The plasma samples were then used for the NSE assay based on the manufacturer's instructions."}, "[7]": {"tested_on": "T3-induced cells (HS5) and PC12 neuronal cells", "assay": "LDH release assay in T3-induced cells (HS5) and PC12 neuronal cells under hypoxia (Example 6)", "type": "cell-based", "settings": "hypoxia 24 hours; Epinephrine 0.5 μM", "procedure": "as §1"}, "[8]": {"tested_on": "chick embryo chorioallantoic membrane (CAM)", "assay": "chick embryo chorioallantoic membrane (CAM) angiogenesis model", "type": "in vivo", "source_text": "as §2"}, "[9]": {"settings": "within the first 5 minutes post-ROSC"}}, "data": [{"molecule": "CNC[C@H](O)c1ccc(O)c(O)c1", "note": "[Epinephrine]", "values": [{"measurement": "ATP levels (in words)", "setting": "[1]", "result": "increased slightly"}, {"measurement": "cardiac ATP levels (in words)", "setting": "[2]", "result": "close to untreated hypoxic cardiomyocytes"}, {"measurement": "Contraction/min", "setting": "[3]; hypoxia", "result": 28, "unit": "min⁻¹"}, {"measurement": "Rhythm", "setting": "[3]; hypoxia", "result": "Irregular"}, {"measurement": "Contraction/min", "setting": "[3]; normoxia", "result": 186, "unit": "min⁻¹"}, {"measurement": "Rhythm", "setting": "[3]; normoxia", "result": "Regular"}, {"measurement": "Troponin T levels (in words)", "setting": "[4]", "result": "close to untreated hypoxic cardiomyocytes"}, {"measurement": "higher concentration of cTnl", "setting": "[5]; post-ROSC, versus the nanoparticle groups", "result": 2, "unit": "fold"}, {"measurement": "rate of ROSC (in words)", "setting": "[5]; swine, 7 minutes of cardiac arrest, intravenous, nanoparticles 0.125 mg/kg, Epinephrine 0.015 mg/kg", "result": "higher"}, {"measurement": "survival duration", "setting": "[5]; swine, post-ROSC, up to 4 hours, nanoparticles 0.125 mg/kg, Epinephrine 0.015 mg/kg", "result": "116 ± 26", "unit": "min"}, {"measurement": "coronary sinus PCO2 compared to vehicle (in words)", "setting": "[5]; [9]", "result": "not"}, {"measurement": "coronary sinus pH compared to vehicle (in words)", "setting": "[5]; [9]", "result": "not"}, {"measurement": "increase of NSE over baseline", "setting": "[6]", "result": 64, "unit": "%"}, {"measurement": "LDH levels (in words)", "setting": "[7]", "result": "showed an increase"}]}, {"molecule": "bFGF: basic fibroblast growth factor, positive comparator in the CAM model", "values": [{"measurement": "Branch points (SEM)", "setting": "[8]; bFGF, dose not given", "result": "115.4 ± 3.2"}]}, {"molecule": "N[C@@H](Cc1cc(I)c(Oc2ccc(O)c(I)c2)c(I)c1)C(=O)O", "note": "[T3, triiodothyronine]", "values": [{"measurement": "contraction levels in cardiomyocytes (in words)", "setting": "[3]; hypoxia", "result": "close to those of the cells under normal conditions"}, {"measurement": "enhanced angiogenesis compared to the control group", "setting": "[8]", "result": "~3", "unit": "fold"}, {"measurement": "Branch points (SEM)", "setting": "[8]; 10 μg", "result": "158.4 ± 5.5"}, {"measurement": "improvement in observed branch points in comparison with bFGF", "setting": "[8]; T3 10 μg, Nano-T3 1 μg", "result": 37, "unit": "%"}]}]}
